Measurements as given in PubChem BioAssay AID1996.
≈ marks a conversion by molar mass, not a printed value.

Settings: buffer; pH 7.4; 200.0 µM
In the case of `OC(C#CCCN1CCCCC1)(c1ccccc1)c1ccccc1`, the solubility kinetic is reported as 37.7 µg/mL (≈ 118 µM). `Cc1cc(S(=O)(=O)NCCCN2CCOCC2)c(Cl)cc1Cl` showed a solubility kinetic of 42.6 µg/mL (≈ 116 µM). In the case of `Cc1ccc2nc(C(F)C(F)(F)F)[nH]c2c1` (stereo not given), the solubility kinetic is reported as greater than 34.8 µg/mL. `N#Cc1ccsc1NC(=O)c1cccc([N+](=O)[O-])c1` gave a solubility kinetic of 4.2 µg/mL (≈ 15.4 µM). `Cc1cccc(C)c1NC(=S)NC(=O)c1ccc(Br)o1` showed a solubility kinetic of 4.1 µg/mL (≈ 11.6 µM). `O=C(NCCCN1CCCC1=O)C1CCCO1` (stereo not given) showed a solubility kinetic of 35.2 µg/mL (≈ 146 µM). For `CCOC(=O)/C=c1\s/c(=C(\C#N)C(N)=O)n(-c2ccccc2)c1=O`, the solubility kinetic was 8.4 µg/mL (≈ 24.5 µM). Molecule `COCc1cc(=O)[nH]c(SCC(=O)N2CCOCC2)n1` has a solubility kinetic greater than 44.9 µg/mL. Work on `CC(=O)N/C(N)=N/c1nc2cc(C)ccc2o1` yielded a solubility kinetic of 3.3 µg/mL (≈ 14.2 µM). `OCCSc1nc(N2CCOCC2)nc(N2CCOCC2)n1` showed a solubility kinetic greater than 49.1 µg/mL. In the case of `O=C(COC(=O)C1CCC1)Nc1ccc(Cl)cn1`, the solubility kinetic is reported as greater than 40.3 µg/mL. Molecule `CN=C1S/C(=C\c2ccc(O)c(Br)c2)C(=O)N1C` has a solubility kinetic of 16.7 µg/mL (≈ 51 µM). For `CN1C(=O)CC(c2ccccc2)Nc2ccccc21.Cl` (stereo not given), the solubility kinetic was greater than 43.3 µg/mL. In the case of `CN1CC(C(=O)c2ccc(F)cc2)C(c2ccc(F)cc2)C1` (stereo not given), the solubility kinetic is reported as greater than 45.2 µg/mL. In the case of `CNC(=O)c1sc(-c2cccs2)nc1C`, the solubility kinetic is reported as greater than 35.7 µg/mL. `CCN(CC)CCn1c(-c2ccc(C)cc2)nc(=S)c2c1CC(C)(C)OC2` showed a solubility kinetic greater than 57.8 µg/mL. In the case of `CN1CCN(c2ccc(NC(=O)c3ccc(Cl)cc3)cn2)CC1`, the solubility kinetic is reported as greater than 49.6 µg/mL. In the case of `Cc1nc(N)c(Br)c(C)c1Br`, the solubility kinetic is reported as 6.2 µg/mL (≈ 22.1 µM). Work on `COCCNC(=S)NCCc1ccc(Cl)cc1Cl` yielded a solubility kinetic greater than 46.1 µg/mL. `Cc1cccc(-n2c(=O)c3c(C)c(C)sc3n(CC(N)=O)c2=O)c1` gave a solubility kinetic greater than 51.5 µg/mL. `CCC(C)N1CNc2c(c(=O)[nH]c(=S)n2-c2cccc(C)c2)C1` (stereo not given) gave a solubility kinetic greater than 49.6 µg/mL. In the case of `CN(C)C(=S)SCC(=O)NC(=O)NC(C)(C)C`, the solubility kinetic is reported as 39.4 µg/mL (≈ 142 µM). In the case of `Cc1ccc(S(=O)(=O)NC(=S)c2ccccc2)cc1`, the solubility kinetic is reported as greater than 43.7 µg/mL. `COc1ccc(-n2c(-c3ccccc3)nc3ccccc3c2=O)cc1` gave a solubility kinetic of 3.3 µg/mL (≈ 10 µM). Work on `CC(=O)c1ccc(S(=O)(=O)N2CCN(C)CC2)cc1` yielded a solubility kinetic greater than 42.4 µg/mL. With `CC(=O)NCCc1c[nH]c2ccc(O)cc12` the solubility kinetic was greater than 32.7 µg/mL. For `O=S(=O)(NC1CCCCC1N1CCCCC1)c1ccccc1` (stereo not given), the solubility kinetic was greater than 48.4 µg/mL. Work on `CCN(CC)CCN1CNC(=S)N(c2ccccc2OC)C1` yielded a solubility kinetic greater than 48.4 µg/mL. `CCc1nc(SCC(=O)Nc2cccc3ccccc23)[nH]c(=O)c1C` gave a solubility kinetic of 1.8 µg/mL (≈ 5.09 µM). Work on `Cc1ccc2c(c1)N(CC(=O)N1CCCC1)C(=O)CO2` yielded a solubility kinetic greater than 41.1 µg/mL. For `CNC(=O)Nc1cc(NC(=O)NC)cc(C(F)(F)F)c1`, the solubility kinetic was greater than 43.5 µg/mL. Work on `O=C(Nc1ccc2c(c1)OCO2)N1CCCc2ccccc21` yielded a solubility kinetic greater than 44.4 µg/mL. For `Cc1ccc(C#CC[N+]2(C)CCCCC2)cc1.[Br-]`, the solubility kinetic was greater than 46.2 µg/mL. For `COc1ccccc1C(=O)CSc1cccc[n+]1[O-]`, the solubility kinetic was 14.4 µg/mL (≈ 52.3 µM). With `COc1cc(CNCCO)ccc1OCCc1ccccc1` the solubility kinetic was greater than 45.2 µg/mL. Work on `Nc1nc(Nc2ccccc2F)nc(NCc2ccccc2)c1[N+](=O)[O-]` yielded a solubility kinetic of less than 0.1 µg/mL. Work on `CCN(C(=S)Nc1cccnc1)c1cccc2ccccc12` yielded a solubility kinetic of 39.9 µg/mL (≈ 130 µM). `CCOc1ccc(Br)cc1S(=O)(=O)Nc1cccnc1` showed a solubility kinetic of 1.4 µg/mL (≈ 3.92 µM). `CCn1c(SCC(=O)Nc2nccc(C)n2)nc2ccccc21` gave a solubility kinetic greater than 49.1 µg/mL. Molecule `NS(=O)(=O)c1cc2c(cc1C(F)(F)F)NC(Cc1ccccc1)NS2(=O)=O` (stereo not given) has a solubility kinetic greater than 63.2 µg/mL. With `Cl.O=C(Nc1ncccc1Cl)c1ccc2c(c1)OCCO2` the solubility kinetic was 37 µg/mL. `COCC(=O)Nc1cc(C)cn(Cc2ccc(F)cc2)c1=O` showed a solubility kinetic greater than 45.6 µg/mL. With `CN(C)S(=O)(=O)c1ccc(C(=O)OCC2CCCO2)cc1` (stereo not given) the solubility kinetic was greater than 47 µg/mL. Work on `Cc1ccc(CNC(=O)N2CCN(S(=O)(=O)c3ccccc3)CC2)cc1` yielded a solubility kinetic of 8.3 µg/mL (≈ 22.2 µM). Work on `CCCc1cc(=O)[nH]c(SCC(=O)Nc2ccc3ccccc3c2)n1` yielded a solubility kinetic of 2.6 µg/mL (≈ 7.36 µM). Work on `COc1ccc(CCNC(=O)c2ccc(OC)c(OC)c2)cc1OC` yielded a solubility kinetic of 39.6 µg/mL (≈ 115 µM). Work on `O=C(NCCCCc1ccccc1)c1ccccc1Cl` yielded a solubility kinetic greater than 43.2 µg/mL. `O=C(NCc1ccccc1)NC(=O)c1ccccc1F` showed a solubility kinetic of 21.1 µg/mL (≈ 77.5 µM). Molecule `Cc1cc(-c2csc3nc[nH]c(=S)c23)cc(C)c1C` has a solubility kinetic of 3.1 µg/mL (≈ 10.8 µM). Work on `CCCOc1ccc2nc(C)c(CCC)c(SC(=N)N)c2c1.Cl` yielded a solubility kinetic of 33 µg/mL. In the case of `NS(=O)(=O)c1ccc(CCNC(=O)NC2CCCCC2)cc1`, the solubility kinetic is reported as greater than 48.8 µg/mL. `O=S(=O)(c1ccsc1)N1CC=C(c2ccccc2)CC1` showed a solubility kinetic of 3.8 µg/mL (≈ 12.4 µM). In the case of `Cc1cc(=O)[nH]c(SCC(=O)Nc2ccc(F)c([N+](=O)[O-])c2)n1`, the solubility kinetic is reported as greater than 50.7 µg/mL. `CC1(C)CC(=O)N(c2cccc(Cl)c2)C(=O)C1` gave a solubility kinetic greater than 37.8 µg/mL. With `Cc1ccc(NCC(=O)Nc2ccc(Br)cc2)cc1C` the solubility kinetic was 3.7 µg/mL (≈ 11.1 µM). `COc1ccccc1C(=O)NCC1(c2ccccc2)CCCC1` gave a solubility kinetic of 8.1 µg/mL (≈ 26.2 µM). Work on `CCOc1ccc(-c2nonc2NC(=O)c2ccco2)cc1` yielded a solubility kinetic of 12.1 µg/mL (≈ 40.4 µM). Molecule `Cc1ccc(S(=O)(=O)N2CCCC(C(=O)NC3CCCC3)C2)cc1` (stereo not given) has a solubility kinetic of 0.5 µg/mL (≈ 1.43 µM). With `CCOc1ccccc1NC(=O)c1csc(C)c1C` the solubility kinetic was 16.5 µg/mL (≈ 59.9 µM). Molecule `C=CCNC(=O)COC(=O)CCC(=O)c1cccs1` has a solubility kinetic greater than 42.2 µg/mL.
